Results taken from patent publication US10426815B2, “Prevention and treatment of itch with an MRGPR antagonist” (THE GENERAL HOSPITAL CORPORATION, priority 2015, dated 2019).
Entries after “also recorded” stand apart in the source; their conditions may differ.

How the values were obtained:
Assay in all cases: Calcium imaging of cells transfected with the GPCR (Table 1)
Assay type in all cases: cell-based
MrgX2 (human MRGPRX2) = molecular target: T1, MrgX2 (human MRGPRX2) (Homo sapiens, UniProt Q96LB1); conditions: for inhibition of SP-induced activation of human MRGPRX2: FIG. 6a: SP 500 nM, inhibitors 1 μM, FK888 10 μM
T1 construct: expressed in transfected cells; host or cells: HeLa cells, pcDNA3.1(-)
T1 sequence (Q96LB1 1-330): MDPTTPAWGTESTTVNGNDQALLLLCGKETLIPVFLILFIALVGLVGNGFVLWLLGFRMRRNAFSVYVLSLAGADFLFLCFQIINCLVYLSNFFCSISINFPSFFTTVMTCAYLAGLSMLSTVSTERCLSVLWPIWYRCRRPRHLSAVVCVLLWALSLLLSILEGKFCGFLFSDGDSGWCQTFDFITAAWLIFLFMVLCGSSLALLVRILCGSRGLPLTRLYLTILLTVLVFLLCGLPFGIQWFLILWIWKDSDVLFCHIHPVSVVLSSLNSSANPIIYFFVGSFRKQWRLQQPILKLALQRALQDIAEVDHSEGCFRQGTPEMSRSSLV
Description: (§1) human MRGPRX2 was isolated by PCR from human genomic DNA using the forward and reverse primers, […] (SEQ. ID. NO: 3) and […] (SEQ. ID. NO: 4), and cloned into pcDNA3.1(−). The mouse MrgprA1 cDNA expression clone was purchased from ORIGENE Technologies. The mouse MrgprB2 coding sequences were PCR-amplified from mouse genomic DNA using the primer pair, […] (SEQ. ID. NO: 5) and […] (SEQ. ID. NO: 6), and cloned into pcDNA3.1 (−).
(§2) 10 μg of expression vector (human MRGPRX2, mouse MrgprA1 or NK1) and 10 μl of LIPOFECTAMINE 2000 transfection reagent were diluted into 0.5 ml of DMEM and separately left at room temperature (RT) for 5 min. They were then mixed and incubated at RT for 20 minutes prior to being added to HeLa cells. HeLa cells were grown to confluence, trypsinized and 1×10^6 cells were pelleted in a 15 ml tube by centrifugation at 1000 rpm for 5 minutes. The DMEM-LIPOFECTAMINE 2000-DNA mixture (1 ml) was then added to the cell pellet, suspended and incubated at RT for 5 minutes. 2 ml of complete DMEM with 10% FBS without antibiotics were added to the tube, mixed by inverting the tube, plated into a 96-well glass bottom plate at 50,000 cells/well, and placed in a 37° C. CO2 incubator for 3 hours. HeLa cells transfected with salmon sperm DNA were plated as a control. The medium was changed after 3 hours and left in the incubator. 24 hours after transfection, the medium in the wells was removed and 100 μl of complete DMEM containing 2 μM of FURA-2 were added to each well and left at room temperature in the dark for 1 hr. Following loading with FURA-2, the medium was removed, washed with PBS and replaced with 90 μl of HEPES-buffered saline (20 mM HEPES, 115 mM NaCl, 5.4 mM KCl, 2 mM CaCl2, 0.8 mM MgCl2, 13.8 mM glucose, pH 7.4).
(§3) Calcium imaging was performed immediately after loading cells with Fura-2, using a ZEISS Axiovert 200M microscope platform equipped with a flipping filter wheel for ratiometric imaging. Axiovision software, version 4.6 was used for calcium image analysis of the cells excited at 340 nm and 380 nm. Agonists were added at 15 seconds after the start of the excitation procedure. Antagonists were added five minutes before imaging with the agonists. Images were taken every 5 seconds, including at zero time, during a 90 second period or longer if required. The software later analyzed all images taken during each excitation period. Ratiometric changes were measured in 10-20 cells in each individual experiment. An average of the fluorescence of the cells in each image was calculated and plotted against time in seconds.
Each of the concentration dependent readings was performed in triplicate. Maximum intensities at each of the dilutions were calculated and plotted against concentration using GraphPad Prism software. Error bars represent SEM.

MrgA1 (mouse MrgprA1) = molecular target: T2, MrgA1 (mouse MrgprA1) (Mus musculus, UniProt Q91WW5); conditions: for activation of mouse MrgprA1 by the substance (in words): NPFF 50 μM, SP at nanomolar concentrations; for inhibition of SP-induced activation of mouse MrgprA1: FIG. 6a: SP 5 μM, inhibitors 10 μM, FK888 10 μM
T2 construct: host or cells: HeLa cells
T2 sequence (Q91WW5 1-304): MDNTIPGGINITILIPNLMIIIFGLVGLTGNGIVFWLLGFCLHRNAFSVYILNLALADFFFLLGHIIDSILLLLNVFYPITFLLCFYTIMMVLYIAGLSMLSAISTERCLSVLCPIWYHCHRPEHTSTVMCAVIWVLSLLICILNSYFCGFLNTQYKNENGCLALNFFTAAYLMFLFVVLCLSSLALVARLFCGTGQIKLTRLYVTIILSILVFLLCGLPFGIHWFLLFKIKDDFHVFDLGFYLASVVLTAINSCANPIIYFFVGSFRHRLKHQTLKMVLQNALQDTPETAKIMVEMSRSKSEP
Description: as §1, §2, §3
HeLa cells transfected with human MRGPRX2, mouse MrgprA1 and NK1 cDNAs were subjected to ratiometric imaging as described above with SP at concentrations from 0.1 nM-50 μM. Each of the concentration dependent readings was performed in triplicate. Maximum intensities at each of the dilutions were calculated and plotted against concentration using GraphPad Prism software. Error bars represent SEM.
The top row lists ligands that have been tested versus the various receptors, both in the absence and presence of QWF.

MrgB2 (mouse MrgprB2) = molecular target: T3, MrgB2 (mouse MrgprB2) (Mus musculus, UniProt Q3KNA1); conditions: for inhibition of SP-induced activation of mouse MrgprB2: FIG. 11: SP 50 μM, NK1 antagonists 50 μM
T3 construct: expressed in transfected cells; host or cells: HeLa cells, pcDNA3.1(-)
T3 sequence (Q3KNA1 1-338): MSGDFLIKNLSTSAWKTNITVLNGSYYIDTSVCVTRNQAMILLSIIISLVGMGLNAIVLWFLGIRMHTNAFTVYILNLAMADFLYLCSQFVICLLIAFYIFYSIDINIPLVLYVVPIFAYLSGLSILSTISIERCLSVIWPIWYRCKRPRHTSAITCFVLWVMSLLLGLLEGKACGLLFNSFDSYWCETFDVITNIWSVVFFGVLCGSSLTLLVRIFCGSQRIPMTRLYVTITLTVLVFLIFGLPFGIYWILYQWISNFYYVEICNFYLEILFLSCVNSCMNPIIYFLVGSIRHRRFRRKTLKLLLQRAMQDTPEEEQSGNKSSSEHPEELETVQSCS
Description: as §1
as §2, with “hr.” for “hr. Following loading with FURA-2, the medium was removed, washed with PBS and replaced with 90 μl of HEPES-buffered saline (20 mM HEPES, 115 mM NaCl, 5.4 mM KCl, 2 mM CaCl2, 0.8 mM MgCl2, 13.8 mM glucose, pH 7.4).”
as §3

Row | Molecule | activation of mouse MrgprB2 by the substance (in words) (MrgB2 (mouse MrgprB2)) | inhibition of SP-induced activation of human MRGPRX2 (MrgX2 (human MRGPRX2)) | inhibition of SP-induced activation of mouse MrgprA1 (MrgA1 (mouse MrgprA1)) | inhibition of SP-induced activation of mouse MrgprB2 (MrgB2 (mouse MrgprB2)) | activation of mouse MrgprA1 by the substance (in words) (MrgA1 (mouse MrgprA1)) | further results
1 | SLIGRL: tethered hexapeptide ligand of mouse PAR2 (SEQ ID NO: 7) | activates | – | – | – | activates | activation of human MRGPRX2 by the substance (in words) (MrgX2 (human MRGPRX2); NPFF 50 μM, capsaicin 3 μM, SP at nanomolar concentrations): activates
2 | Boc-Gln-D-Trp(Formyl)-Phe benzyl ester trifluoroacetate [QWF] | – | excellent inhibitor; also recorded: potent antagonist; also recorded: inhibits | excellent inhibitor; also recorded: potent antagonist; also recorded: inhibits; also recorded: blocks | inhibits; also recorded: antagonized; also recorded: antagonist | – | inhibition of hMRGPRX2 activation by compound 48/80 (MrgX2 (human MRGPRX2)): inhibits; inhibition of human MRGPRX2 activation by atracurium and ciprofloxacin (MrgX2 (human MRGPRX2); FIG. 8a): antagonized; also recorded: inhibits; inhibition of mMrgprA1 activation by compound 48/80 (MrgA1 (mouse MrgprA1)): inhibits; inhibition of mMrgprB2 activation by compound 48/80 (MrgB2 (mouse MrgprB2)): inhibits; inhibition of mouse MrgprB2 activation by atracurium and ciprofloxacin (MrgB2 (mouse MrgprB2); FIG. 8a): antagonized; also recorded: inhibits; inhibition of mMrgprB2 activation by SLIGRL (MrgB2 (mouse MrgprB2); SLIGRL 10 μM, QWF 10 μM (FIG. 12)): inhibits
3 | SP: inflammatory undecapeptide neuropeptide of the tachykinin family, synthesized by GenScript | activates | – | – | – | activates; also recorded: specifically activated | –
4 | FC(F)(F)c1cc(CO[C@H]2CCCN[C@H]2c2ccccc2)cc(C(F)(F)F)c1 [L-733060] | – | did not impact | did not impact | antagonized; also recorded: antagonists | – | inhibition of SP-induced activation of mouse MrgprA1 (MrgA1 (mouse MrgprA1); listed as L733060): not
5 | C[C@@H](O[C@H]1OCCN(Cc2n[nH]c(=O)[nH]2)[C@H]1c1ccc(F)cc1)c1cc(C(F)(F)F)cc(C(F)(F)F)c1 [aprepitant] | – | did not impact | did not impact and not | antagonized; also recorded: antagonists | – | –
